The values below come from paper PMC6627486, “Ipomoeassin F Binds Sec61α to Inhibit Protein Translocation” (Journal of the American Chemical Society, 2019).

Data set [1] deals with A2780 human ovarian cancer cells. Also on record: method as in PMID 15844934. Conditions: read-out: IC50, proliferation of A2780 cells; cited from earlier work.
A further data set concerns HCT116. Description: cells. The format is cell-based. Conditions: Homo sapiens, HCT-116; HCT116, 72 h, Alamar Blue, assayed separately; read-out: Cytotoxicity (IC50). As for the experimental part:
(§1) AlamarBlue Cytotoxicity Assay
(§2) MDA-MB-231, MCF-10A and HCT116. Viable cells were counted with a hemocytometer immediately before each experiment . Experiments were done in triplicate. First, 100 μL of MDA-MB-231 cells or MCF-10A cells at the density of 50,000 cells/mL was seeded in a 96-well plate (5,000 cells/well) and then incubated at 37 °C and 5% CO2 for 24 h. The compounds were dissolved in DMSO (dimethyl sulfoxide) to make drug stocks (10 mM). The stock solutions were diluted with the complete DMEM high glucose culture medium to make a series of gradient fresh working solutions right before each test. Subsequently, the cells were treated with 100 μL of the freshly made gradient working solution in a total volume of 200 μL/well for 72 h. After that, the media were discarded and 200 μL of the fresh complete medium containing 10% of AlamarBlue (resazurin) stock solution was added to each well. The plate was then incubated at 37 °C and 5% CO2 for another 3 h. Emission of each well at 620 nm was detected by a microplate reader (BioTek Synergy H1) at excitation 580 nm. For HCT116 WT and mutant lines, cells were seeded at 1000 cells/ well in complete McCoys medium. Compounds were diluted from a DMSO stock into culture medium as described above. Cells were treated for 96 h, then viability measured with AlamarBlue, detected using the conditions described but with a BMG Fluostar Optima Microplate Reader. The percentage of viability compared to the negative control (DMSO-treated cells) was determined. […]
HCT116 and HEK293T. Viable cells were counted using an automated cell counter (BioRad TC20) before each experiment. […] Emission of each well at 620 nm was detected by a microplate reader (Perkin Elmer EnSpire) at excitation 580 nm. The percentage of viability compared to the negative control (DMSO -treated cells) was determined. […]
Figure S1. […] (C) HCT116 colon carcinoma cells were treated with increasing concentrations of analogues 8, 14, 15, CT8, ipomoeassin F or carrier (0.1% DMSO) and cell viability was assessed at 72 h by the Alamar Blue assay (mean ± S.D., n = 4). […]

Data set [2] has as its target T1, Sec61-mediated protein translocation (Canis lupus familiaris, UniProt P38377).
T1 construct: ER microsomes derived from canine pancreas; from tissue; host or cells: canine pancreas ER microsomes (nuclease-treated)
The experiment in a line: In vitro translation and Sec61-dependent translocation into ER microsomes. The format is biochemical, canine. As to conditions: type II membrane protein Ii, ER microsomes. The source says:
In Vitro Membrane Translocation Assays.
Unless otherwise stated, all cDNAs are of human origin and as previously described: CytB5OPG2,16 GypC,17 ppαF (Saccharomyces cerevisiae),16 ppcecAOPG2 (Hyalophora cecropia),16 PPL (Bos Taurus),16 Sec61βOPG216 and VCAM1.17 Ii encodes residues 17 to 232 of the short form of human HLA class II histocompatibility antigen gamma chain (Ii; P04232, isoform 2). Linear DNA templates were generated by PCR and transcribed into RNA using T7 or SP6 polymerase (Promega).
In vitro translation and translocation into ER microsomes
Translation reactions (20 μL) were performed in nuclease-treated rabbit reticulocyte lysate (Promega) in the presence of EasyTag EXPRESS 35S Protein Labelling Mix containing [35S] methionine (Perkin Elmer) (0.533 MBq; 30.15 TBq/mmol). Amino acids minus methionine (Promega) were added to 25 µM each, […]
equivalent volume of DMSO, and nuclease-treated ER microsomes (from stock with OD280 = 44/mL) were added to 6.5% (v/v). Lastly, 10% volume of in vitro transcribed mRNA (from 200-1000 ng/μL stocks) encoding the relevant precursor protein was added and translation reactions performed for 20 min at 30°C. Following incubation with 0.1 mM puromycin for 5 min at 30°C to ensure translational termination and ribosome release, membrane-associated fractions were isolated by centrifugation through an 80 μL high-salt cushion (0.75 M sucrose, 0.5 M KOAc, 5 mM Mg(OAc)2, 50 mM Hepes-KOH, pH 7.9) at 100,000 x g for 10 min at 4°C in a TLA100 rotor (Beckmann). Membrane pellets were suspended directly in SDS (sodium dodecyl sulphate) sample buffer (0.02% bromophenol blue, 62.5 mM, 4% (w/v) SDS, 10% (v/v) glycerol, pH 7.6, 1 M dithiothreitol) and, where indicated, treated with 1,000 U of Endoglycosidase H (New England Biolabs) for 30 min at 37°C prior to analysis. All samples were denatured for 10 min at 70°C prior to resolution by SDS-PAGE (12% or 16% polyacrylamide gels, 120 V, 120 min), gels were fixed (20% MeOH, 10% AcOH) for 5 min, dried (BioRad gel dryer) for 2 h at 65°C and, following exposure to a phosphorimaging plate for 24-72 h, radiolabelled products were visualised using a Typhoon FLA-7000 (GE Healthcare).
Quantitative analysis of Ii membrane insertion was performed using AIDA v.5.0 (Raytest Isotopenmeβgeräte) whereby the ratio of the signal intensity for the 2Gly/0Gly forms was used as a read-out to estimate efficiency of integration into the ER membrane. This value was then expressed relative to the matched DMSO control in order to derive the mean relative ER insertion from three independent experiments (n=3). Statistical significance of the effectiveness of Ipom-F analogues (RM one-way ANOVA) was determined using Tukey’s multiple comparisons test. IC50 value estimates were determined using non-linear regression to fit data to a curve of variable slope (four parameters) using the least squares fitting method in which the bottom and top plateaus of the curve were defined as 0% and 100% respectively. The differences between the estimated IC50 values for the three compounds analysed were statistically significant (****) according to the extra-sum-of-squares F test. Statistical analyses and IC50 estimates were performed using Prism 7.0d (GraphPad) with statistical significance given as n.s., non - significant and ****, P < 0.0001.
U2-OS secNLuc-ATZ Secretion and Cell Viability Assays

In the next data set the test system is HCT-116 cells. Description: Metabolic labelling of nascent proteins in HCT116 cells. It is filed as cell-based, human. As to conditions: HCT-116, 1 μM, 35S labelling. On the procedure:
Metabolic Labelling Assays in HCT116 Cells
HCT116 cells were counted using an automated cell counter (BioRad TC20) immediately prior to each experiment. 3 ml of HCT116 cells at a density of 0.166x10^6 cells/mL were seeded to 6-well plates (0.5x10^6 cells/well) and then incubated at 37 °C and 5% CO 2 for 24 h. The compounds were dissolved in DMSO to make drug stocks (10 mM). The stock solutions were diluted with DMEM high glucose culture medium lacking methionine and cysteine to make a fresh working solution immediately prior to each test. Cells were washed twice and 1ml of fresh DMEM lacking methionine and cysteine was added to each well.
Subsequently, the cells were treated with 250 µl of compound solutions in a total volume of 1 ,250 µl/well.
The plate was then incubated at 37 °C and 5% CO 2 for 30 min before 100 µCi 35S-labelled methionine/cysteine was added (Expre35s35s protein labelling mix). Plates were incubated for a further 30 min, then media collected and cells harvested by scraping after four washes in ice-cold PBS. Total protein was acquired by RIPA extraction from the cell pellet, cytoplasmic fraction was acquired by partial permeabilization of the outer cell membranes with 0.15% Digitonin followed by centrifugation, secreted proteins were acquired by TCA precipitation of the media. […]

For the next data set, the system named is MDA-MB-231. Description: AlamarBlue cytotoxicity assay, MDA-MB-231. The format is cell-based, human. Conditions: MDA-MB-231, 72 h, AlamarBlue; read-out: Cytotoxicity (IC50). As for the experimental part:
as §1
as §2, with “nm.” for “nm. For HCT116 WT and mutant lines, cells were seeded at 1000 cells/ well in complete McCoys medium. Compounds were diluted from a DMSO stock into culture medium as described above. Cells were treated for 96 h, then viability measured with AlamarBlue, detected using the conditions described but with a BMG Fluostar Optima Microplate Reader. The percentage of viability compared to the negative control (DMSO-treated cells) was determined.”
(§3) Microplate Reader. The percentage of viability compared to the negative control (DMSO-treated cells) […]
(§4) was determined. […]

Another data set has as its system MCF7. Description: MTT cytotoxicity assay, MCF7. The format is cell-based, human. As to conditions: MCF7, 72 h, MTT; read-out: Cytotoxicity (IC50). On the procedure:
Two human breast cancer cell lines (MDA-MB-231 and MCF7) and one human breast non-tumorigenic epithelial cell line (MCF-10A) were maintained in a DMEM high glucose culture medium supplemented with 10% fetal bovine serum (FBS) and 2 mM L-glutamine. The cells were grown in a humidified atmosphere of 5% CO2 and 95% air at 37 °C . The culture medi um w as changed every 2–4 days depending on cell density. Cell cultures were passaged once a week using 0.125% trypsin-EDTA to detach the cells from culture flasks/dishes.
The human colorectal cancer cell line HCT116 was maintained in McCoy’s 5A (modified) medium supplemented with 10% fetal bovine serum (FBS). The human embryonic kidney (HEK293T and HEK293 FRT TRex) cell line was maintained in DMEM high glucose culture medium supplemented with 10% fetal bovine serum (FBS).
HepG2 cells were cultured in DMEM supplemented with 10% fetal bovine serum and 2 mM L-glutamine at 37°C under 5% CO2.
Viable cells were counted with a hemocytometer immediately before each experiment. Experiments were done in triplicate. First, 100 μL of MCF7 cells at the density of 50,000 cells/mL were seeded in a 96-well plate (5,000 cells/well), which was incubated at 37 °C and 5% CO2 atmosphere for 24 h. The compounds were dissolved in DMSO (dimethyl sulfoxide) to make drug stocks (10 mM). The stock solutions were diluted with the complete DMEM high glucose culture medium to make a series of gradient fresh working solutions right before each test. Subsequently, the cells were treated with 100 μL of the freshly made gradient working solution in a total volume of 200 μL/well for 72 h. After that, the media were discarded and 200 μL of the fresh complete medium containing 10% of MTT stock solution (5 mg/mL) was added to each well. The plate was then incubated at 37 °C and 5% CO2 for 3 h. Next, 180 μL of the medium was discarded from each well , and 180 μL of DMSO was added to each well to dissol ve formazan crystals. Absorbance of formazan was detected by a microplate reader (BioTek Synergy H1) at 570 nm with 650 nm as the reference wavelength. The percentage of viability compared to the negative control (DMSO-treated cells) was determined . GraphPad Prism 6 software was used to make a plot of %

In another data set the test system is MCF-10A. The experiment in a line: AlamarBlue cytotoxicity assay, MCF-10A. As to conditions: 72 h. It is filed as cell-based, human. As for the experimental part:
as §1
as §2, with “nm.” for “nm. For HCT116 WT and mutant lines, cells were seeded at 1000 cells/ well in complete McCoys medium. Compounds were diluted from a DMSO stock into culture medium as described above. Cells were treated for 96 h, then viability measured with AlamarBlue, detected using the conditions described but with a BMG Fluostar Optima Microplate Reader. The percentage of viability compared to the negative control (DMSO-treated cells) was determined.”
as §3, §4
In general terms: The colour change of resazurin is a common sign of viable cells or microbes.

T1 sequence (P38377 whole entry): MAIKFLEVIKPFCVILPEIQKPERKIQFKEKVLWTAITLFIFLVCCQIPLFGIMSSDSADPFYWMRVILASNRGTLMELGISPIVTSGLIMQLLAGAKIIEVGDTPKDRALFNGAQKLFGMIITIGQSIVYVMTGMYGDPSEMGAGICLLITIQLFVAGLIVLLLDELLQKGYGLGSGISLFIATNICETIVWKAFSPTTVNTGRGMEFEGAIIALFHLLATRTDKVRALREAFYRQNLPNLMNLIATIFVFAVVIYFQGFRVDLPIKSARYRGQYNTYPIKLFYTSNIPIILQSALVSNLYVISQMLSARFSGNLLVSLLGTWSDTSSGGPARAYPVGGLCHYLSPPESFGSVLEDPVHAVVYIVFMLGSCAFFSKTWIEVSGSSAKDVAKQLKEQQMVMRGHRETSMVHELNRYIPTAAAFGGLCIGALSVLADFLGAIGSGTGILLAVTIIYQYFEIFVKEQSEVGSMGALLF
T1 sequence (P60467 whole entry, further chain): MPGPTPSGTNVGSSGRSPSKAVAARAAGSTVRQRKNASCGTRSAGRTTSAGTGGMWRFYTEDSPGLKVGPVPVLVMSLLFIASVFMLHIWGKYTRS
T1 sequence (P60058 whole entry, further chain): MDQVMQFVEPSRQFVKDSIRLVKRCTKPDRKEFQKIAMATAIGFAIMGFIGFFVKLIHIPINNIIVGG

For `C/C=C(\C)C(=O)O[C@@H]1[C@@H](O)[C@@H]2O[C@H]3[C@H](O[C@@H](CCC)CCCCC[C@H](OC(C)=O)C(=O)CCC(=O)OC[C@@H](O2)[C@H]1OC(=O)/C=C/c1ccccc1)O[C@H](C)[C@H](OC(C)=O)[C@@H]3O` [ipomoeassin D], the IC50 in data set [1] was 0.035 µM.
For `C/C=C(\C)C(=O)O[C@@H]1[C@@H](O)[C@@H]2O[C@H]3[C@H](O[C@@H](CCCCC)CCCCCCC(=O)CCC(=O)OC[C@@H](O2)[C@H]1OC(=O)CCc1ccccc1)O[C@H](C)[C@H](OC(C)=O)[C@@H]3O` [compound 14], the IC50 with HCT116 was found to be 1.87 µM. Besides, the “inhibition of Ii membrane insertion” value in data set [2] is listed as “far less effective inhibitor”. In addition, the “inhibition of production of secreted proteins compared with ipomoeassin F” value in the data set on HCT-116 cells is recorded as “less potently”.
Take `C/C=C(\C)C(=O)O[C@@H]1[C@@H](O)[C@@H]2O[C@H]3[C@H](O[C@@H](CCCCC)CCCCCCC(=O)CCC(=O)OC[C@@H](O2)[C@H]1OC(=O)/C=C/c1ccc(OCc2cn(CCOCCOCCOCCNS(=O)(=O)c4ccc(-c5c6ccc(=[N+](CC)CC)cc-6oc6cc(N(CC)CC)ccc56)c(S(=O)(=O)[O-])c4)nn2)cc1)O[C@H](C)[C@H](OC(C)=O)[C@@H]3O` [compound 12]: the values for the IC50 with MDA-MB-231, with MCF7 and in the data set on MCF-10A were 0.253 µM, 0.172 µM and 0.134 µM, respectively.
